Measurements: ChEMBL document CHEMBL1649268, “Comparative in vitro activity profile of oritavancin against recent gram-positive clinical isolates” (2009)
≈ marks a conversion by molar mass, not a printed value.

Legend:
[1] = tested on: Staphylococcus haemolyticus; assay: Antimicrobial activity against Staphylococcus haemolyticus clinical isolates by broth microdilution method; format: functional
[2] = tested on: Staphylococcus epidermidis; assay: Antimicrobial activity against oxacillin-resistant Staphylococcus epidermidis clinical isolates by broth microdilution method; format: functional
[3] = tested on: Streptococcus pyogenes; assay: Antimicrobial activity against erythromycin-nonsusceptible Streptococcus pyogenes clinical isolates assessed as resistant isolates by broth microdilution method; format: functional
[4] = tested on: Streptococcus pyogenes; assay: Antimicrobial activity against Streptococcus pyogenes clinical isolates by broth microdilution method; format: functional
[5] = tested on: Streptococcus agalactiae; assay: Antimicrobial activity against erythromycin-susceptible Streptococcus agalactiae clinical isolates by broth microdilution method; format: functional
[6] = tested on: Staphylococcus haemolyticus; assay: Antimicrobial activity against Staphylococcus haemolyticus clinical isolates assessed as percent susceptible isolates by broth microdilution method; format: functional
[7] = tested on: Streptococcus pneumoniae; assay: Antimicrobial activity against Streptococcus pneumoniae clinical isolates assessed as resistant isolates by broth microdilution method; format: functional
[8] = tested on: Streptococcus pneumoniae; assay: Antimicrobial activity against penicillin-susceptible Streptococcus pneumoniae clinical isolates assessed as resistant isolates by broth microdilution method; format: functional
[9] = tested on: Staphylococcus aureus; assay: Antimicrobial activity against oxacillin-susceptible Staphylococcus aureus clinical isolates assessed as percent susceptible isolates by broth microdilution method; format: functional
[10] = Antimicrobial activity against erythromycin-nonsusceptible Streptococcus Group C clinical isolates by broth microdilution method; format: functional; details: Streptococcus sp. 'group C'
[11] = tested on: Staphylococcus aureus; assay: Antimicrobial activity against oxacillin-susceptible Staphylococcus aureus clinical isolates by broth microdilution method; format: functional
[12] = tested on: Streptococcus agalactiae; assay: Antimicrobial activity against erythromycin-susceptible Streptococcus agalactiae clinical isolates assessed as percent susceptible isolates by broth microdilution method; format: functional
[13] = tested on: Streptococcus agalactiae; assay: Antimicrobial activity against erythromycin-nonsusceptible Streptococcus agalactiae clinical isolates by broth microdilution method; format: functional
[14] = tested on: Staphylococcus haemolyticus; assay: Antimicrobial activity against oxacillin-resistant Staphylococcus haemolyticus clinical isolates assessed as percent susceptible isolates by broth microdilution method; format: functional
[15] = Antimicrobial activity against Streptococcus Group C clinical isolates by broth microdilution method; format: functional; details: Streptococcus sp. 'group C'
[16] = tested on: Staphylococcus epidermidis; assay: Antimicrobial activity against Staphylococcus epidermidis clinical isolates assessed as resistant isolates by broth microdilution method; format: functional
[17] = tested on: Streptococcus pyogenes; assay: Antimicrobial activity against erythromycin-susceptible Streptococcus pyogenes clinical isolates by broth microdilution method; format: functional
[18] = tested on: Staphylococcus epidermidis; assay: Antimicrobial activity against oxacillin-resistant Staphylococcus epidermidis clinical isolates assessed as resistant isolates by broth microdilution method; format: functional
[19] = tested on: Staphylococcus epidermidis; assay: Antimicrobial activity against Staphylococcus epidermidis clinical isolates by broth microdilution method; format: functional
[20] = tested on: Streptococcus agalactiae; assay: Antimicrobial activity against Streptococcus agalactiae clinical isolates by broth microdilution method; format: functional
[21] = tested on: Streptococcus pneumoniae; assay: Antimicrobial activity against penicillin-resistant Streptococcus pneumoniae clinical isolates assessed as percent susceptible isolates by broth microdilution method; format: functional
[22] = tested on: Staphylococcus haemolyticus; assay: Antimicrobial activity against oxacillin-susceptible Staphylococcus haemolyticus clinical isolates assessed as resistant isolates by broth microdilution method; format: functional
[23] = tested on: Staphylococcus epidermidis; assay: Antimicrobial activity against oxacillin-susceptible Staphylococcus epidermidis clinical isolates by broth microdilution method; format: functional
[24] = tested on: Streptococcus pyogenes; assay: Antimicrobial activity against Streptococcus pyogenes clinical isolates assessed as resistant isolates by broth microdilution method; format: functional
[25] = tested on: Streptococcus pneumoniae; assay: Antimicrobial activity against penicillin-intermediate Streptococcus pneumoniae clinical isolates assessed as resistant isolates by broth microdilution method; format: functional
[26] = tested on: Staphylococcus aureus; assay: Antimicrobial activity against oxacillin-susceptible Staphylococcus aureus clinical isolates assessed as resistant isolates by broth microdilution method; format: functional
[27] = tested on: Staphylococcus epidermidis; assay: Antimicrobial activity against Staphylococcus epidermidis clinical isolates assessed as percent susceptible isolates by broth microdilution method; format: functional
[28] = tested on: Streptococcus; assay: Antimicrobial activity against erythromycin-nonsusceptible Streptococcus Group F clinical isolates by broth microdilution method; format: functional
[29] = tested on: Staphylococcus epidermidis; assay: Antimicrobial activity against oxacillin-susceptible Staphylococcus epidermidis clinical isolates assessed as percent susceptible isolates by broth microdilution method; format: functional
[30] = tested on: Streptococcus pyogenes; assay: Antimicrobial activity against erythromycin-nonsusceptible Streptococcus pyogenes clinical isolates by broth microdilution method; format: functional
[31] = tested on: Streptococcus pyogenes; assay: Antimicrobial activity against erythromycin-susceptible Streptococcus pyogenes clinical isolates assessed as percent susceptible isolates by broth microdilution method; format: functional
[32] = Antimicrobial activity against erythromycin-susceptible Streptococcus Group G clinical isolates assessed as percent susceptible isolates by broth microdilution method; format: functional, Streptococcus sp. 'group G'
[33] = tested on: Streptococcus pneumoniae; assay: Antimicrobial activity against penicillin-resistant Streptococcus pneumoniae clinical isolates assessed as resistant isolates by broth microdilution method; format: functional
[34] = tested on: Staphylococcus aureus; assay: Antimicrobial activity against Staphylococcus aureus clinical isolates assessed as resistant isolates by broth microdilution method; format: functional
[35] = tested on: Staphylococcus aureus; assay: Antimicrobial activity against oxacillin-resistant Staphylococcus aureus clinical isolates assessed as percent susceptible isolates by broth microdilution method; format: functional
[36] = tested on: Streptococcus agalactiae; assay: Antimicrobial activity against erythromycin-nonsusceptible Streptococcus agalactiae clinical isolates assessed as percent susceptible isolates by broth microdilution method; format: functional
[37] = Antimicrobial activity against erythromycin-susceptible Streptococcus Group C clinical isolates by broth microdilution method; format: functional; details: Streptococcus sp. 'group C'
[38] = tested on: Streptococcus pneumoniae; assay: Antimicrobial activity against penicillin-intermediate Streptococcus pneumoniae clinical isolates assessed as percent susceptible isolates by broth microdilution method; format: functional
[39] = tested on: Streptococcus; assay: Antimicrobial activity against erythromycin-susceptible Streptococcus Group F clinical isolates by broth microdilution method; format: functional
[40] = Antimicrobial activity against erythromycin-susceptible Streptococcus Group G clinical isolates by broth microdilution method; format: functional; details: Streptococcus sp. 'group G'
[41] = tested on: Staphylococcus aureus; assay: Antimicrobial activity against Staphylococcus aureus clinical isolates assessed as percent susceptible isolates by broth microdilution method; format: functional
[42] = tested on: Staphylococcus aureus; assay: Antimicrobial activity against Staphylococcus aureus clinical isolates by broth microdilution method; format: functional
[43] = Antimicrobial activity against erythromycin-nonsusceptible Streptococcus Group G clinical isolates by broth microdilution method; format: functional; details: Streptococcus sp. 'group G'
[44] = Antimicrobial activity against erythromycin-nonsusceptible Streptococcus Group G clinical isolates assessed as percent susceptible isolates by broth microdilution method; format: functional, Streptococcus sp. 'group G'
[45] = tested on: Streptococcus pneumoniae; assay: Antimicrobial activity against penicillin-susceptible Streptococcus pneumoniae clinical isolates by broth microdilution method; format: functional
[46] = tested on: Streptococcus agalactiae; assay: Antimicrobial activity against erythromycin-nonsusceptible Streptococcus agalactiae clinical isolates assessed as resistant isolates by broth microdilution method; format: functional
[47] = tested on: Streptococcus pneumoniae; assay: Antimicrobial activity against penicillin-intermediate Streptococcus pneumoniae clinical isolates by broth microdilution method; format: functional
[48] = tested on: Staphylococcus haemolyticus; assay: Antimicrobial activity against Staphylococcus haemolyticus clinical isolates assessed as resistant isolates by broth microdilution method; format: functional
[49] = tested on: Streptococcus pyogenes; assay: Antimicrobial activity against Streptococcus pyogenes clinical isolates assessed as percent susceptible isolates by broth microdilution method; format: functional
[50] = tested on: Streptococcus pneumoniae; assay: Antimicrobial activity against Streptococcus pneumoniae clinical isolates by broth microdilution method; format: functional
[51] = Antimicrobial activity against erythromycin-susceptible Streptococcus Group C clinical isolates assessed as percent susceptible isolates by broth microdilution method; format: functional, Streptococcus sp. 'group C'
[52] = tested on: Staphylococcus epidermidis; assay: Antimicrobial activity against oxacillin-susceptible Staphylococcus epidermidis clinical isolates assessed as resistant isolates by broth microdilution method; format: functional
[53] = Antimicrobial activity against Streptococcus Group G clinical isolates by broth microdilution method; format: functional; details: Streptococcus sp. 'group G'
[54] = tested on: Staphylococcus haemolyticus; assay: Antimicrobial activity against oxacillin-susceptible Staphylococcus haemolyticus clinical isolates by broth microdilution method; format: functional
[55] = tested on: Staphylococcus haemolyticus; assay: Antimicrobial activity against oxacillin-resistant Staphylococcus haemolyticus clinical isolates assessed as resistant isolates by broth microdilution method; format: functional
[56] = tested on: Staphylococcus haemolyticus; assay: Antimicrobial activity against oxacillin-susceptible Staphylococcus haemolyticus clinical isolates assessed as percent susceptible isolates by broth microdilution method; format: functional
[57] = tested on: Streptococcus pneumoniae; assay: Antimicrobial activity against penicillin-resistant Streptococcus pneumoniae clinical isolates by broth microdilution method; format: functional
[58] = Antimicrobial activity against erythromycin-nonsusceptible Streptococcus Group C clinical isolates assessed as percent susceptible isolates by broth microdilution method; format: functional, Streptococcus sp. 'group C'
[59] = tested on: Streptococcus agalactiae; assay: Antimicrobial activity against Streptococcus agalactiae clinical isolates assessed as percent susceptible isolates by broth microdilution method; format: functional
[60] = tested on: Streptococcus pyogenes; assay: Antimicrobial activity against erythromycin-nonsusceptible Streptococcus pyogenes clinical isolates assessed as percent susceptible isolates by broth microdilution method; format: functional
[61] = tested on: Streptococcus pneumoniae; assay: Antimicrobial activity against Streptococcus pneumoniae clinical isolates assessed as percent susceptible isolates by broth microdilution method; format: functional
[62] = tested on: Streptococcus; assay: Antimicrobial activity against Streptococcus Group F clinical isolates by broth microdilution method; format: functional
[63] = tested on: Staphylococcus epidermidis; assay: Antimicrobial activity against oxacillin-resistant Staphylococcus epidermidis clinical isolates assessed as percent susceptible isolates by broth microdilution method; format: functional
[64] = tested on: Streptococcus agalactiae; assay: Antimicrobial activity against Streptococcus agalactiae clinical isolates assessed as resistant isolates by broth microdilution method; format: functional
[65] = tested on: Streptococcus pneumoniae; assay: Antimicrobial activity against penicillin-susceptible Streptococcus pneumoniae clinical isolates assessed as percent susceptible isolates by broth microdilution method; format: functional
[66] = tested on: Staphylococcus aureus; assay: Antimicrobial activity against oxacillin-resistant Staphylococcus aureus clinical isolates assessed as resistant isolates by broth microdilution method; format: functional

Compound: CC[C@H]1OC(=O)[C@H](C)[C@@H](O[C@H]2C[C@@](C)(OC)[C@@H](O)[C@H](C)O2)[C@H](C)[C@@H](O[C@@H]2O[C@H](C)C[C@H](N(C)C)[C@H]2O)[C@](C)(O)C[C@@H](C)C(=O)[C@H](C)[C@@H](O)[C@]1(C)O [ERYTHROMYCIN]
- MIC90 [1]: > 8 µg/mL
- MIC [2]: ≥ 0.12 µg/mL
- Activity [3]: 99.2%
- MIC90 [4]: > 2 µg/mL
- MIC90 [5]: 0.06 µg/mL (≈ 0.0818 µM)
- Activity [6]: 21.6%
- Resistant isolates [7]: 32.4%
- Percent of isolates resistant [8]: 11.6%
- Activity [9]: 60.7%
- MIC90 [10]: > 2 µg/mL
- MIC90 [11]: > 8 µg/mL
- Activity [12]: 100%
- MIC90 [13]: > 2 µg/mL
- Activity [14]: 11.7%
- MIC90 [15]: 2 µg/mL (≈ 2.73 µM)
- Percent of isolates resistant [16]: 67.2%
- MIC90 [17]: 0.06 µg/mL (≈ 0.0818 µM)
- Percent of isolates resistant [18]: 75.3%
- MIC90 [19]: > 8 µg/mL
- MIC90 [20]: > 2 µg/mL
- Activity [21]: 14.9%
- Activity [22]: 51.4%
- MIC90 [23]: > 8 µg/mL
- Activity [24]: 13.6%
- Percent of isolates resistant [25]: 58.8%
- Percent of isolates resistant [26]: 35.9%
- Activity [27]: 32.2%
- MIC90 [28]: > 2 µg/mL
- Activity [29]: 53.8%
- MIC90 [30]: > 2 µg/mL
- Activity [31]: 100%
- Activity [32]: 100%
- Percent of isolates resistant [33]: 84.5%
- Percent resistant isolates [34]: 65.3%
- Activity [35]: 8.4%
- Activity [36]: 0%
- MIC90 [37]: 0.06 µg/mL (≈ 0.0818 µM)
- Activity [38]: 41.2%
- MIC90 [39]: 0.06 µg/mL (≈ 0.0818 µM)
- MIC90 [40]: 0.06 µg/mL (≈ 0.0818 µM)
- Activity [41]: 32.6%
- MIC90 [42]: > 8 µg/mL
- MIC90 [43]: > 2 µg/mL
- Activity [44]: 0%
- MIC90 [45]: > 2 µg/mL
- Activity [46]: 97.5%
- MIC90 [47]: > 2 µg/mL
- Resistant isolates [48]: 78.4%
- Activity [49]: 86.3%
- MIC90 [50]: > 2 µg/mL
- Activity [51]: 100%
- Percent of isolates resistant [52]: 45.4%
- MIC90 [53]: 2 µg/mL (≈ 2.73 µM)
- MIC90 [54]: > 8 µg/mL
- Activity [55]: 88.3%
- Activity [56]: 48.6%
- MIC [57]: > 0.03 µg/mL
- Activity [58]: 0%
- Activity [59]: 70.6%
- Activity [60]: 0%
- Activity [61]: 67.3%
- MIC90 [62]: 2 µg/mL (≈ 2.73 µM)
- Activity [63]: 24.1%
- Activity [64]: 28.7%
- Activity [65]: 88.1%
- Percent resistant isolates [66]: 90.5%
